Reference: patent US4317912A, “Tetracyclic indole derivatives” (Farmitalia Carlo Erba S.p.A., priority 1979, dated 1982)

What was measured:
[1] = system: spontaneously hypertensive rats (Okamoto strain); experiment: Anti-hypertensive activity in conscious spontaneously hypertensive rats (Okamoto), carotid artery catheter; type: in vivo, rat (spontaneously hypertensive; conditions: for Change in blood pressure after treatment, 30' / Change in heart rate after treatment, 30' / Change in blood pressure after treatment, 60' / Change in heart rate after treatment, 60' / Change in blood pressure after treatment, 120' / Change in heart rate after treatment, 120' / Change in blood pressure after treatment, 240' / Change in heart rate after treatment, 240' / Change in blood pressure after treatment, 360' / Change in heart rate after treatment, 360': mean of 6 animals; for Effect on heart rate: oral (Table 4)
Method: Blood pressure recordings were made in conscious hypertensive unrestrained rats weighing approximately 300 g, via a catheter cronically inserted into the left common carotid artery. Implantation of arterial cannula was made under sodium pentobarbital anesthesia (50 mg/kg i.p.). A 1 cm long incision was made through the previously shaved ventral surface of the neck and the tissues overlying the trachea parted by blunt dissection to reveal the carotid artery. The polyethylene catheter used was made with PE 50 tubing, previously filled with saline containing 250 I.U./ml heparin. The tip of the cannula was pushed at least 2 cm inside the vessel toward the heart. The cannula was then firmly tied and passed beneath the skin to emerge from a small incision in the back of the neck. During the postoperative period and before the start of each recording session, the cannula was flushed through daily with saline containing heparin (250 U.I./ml). The experiments were performed two days after surgery. Drugs were administered by gastric gavage.

[2] = system: spontaneously hypertensive male rats, strain MHS; experiment: Anti-hypertensive activity in spontaneously hypertensive rats (MHS), blood pressure and heart rate measured at the tail; type: in vivo, rat (spontaneously hypertensive; conditions: MHS rats; for Change in BP, 1st day, 1 hr after dose / Change in HR, 1st day, 1 hr after dose / Change in BP, 1st day, 5 hrs after dose / Change in HR, 1st day, 5 hrs after dose / Change in BP, 4th day, 1 hr after dose / Change in HR, 4th day, 1 hr after dose / Change in BP, 4th day, 5 hrs after dose / Change in HR, 4th day, 5 hrs after dose: mean of 4 animals
Method: Four spontaneously hypertensive male rats, strains MHS, weighing 250-300 g for each group were used.
The animals were treated for four consecutive days. Drugs were administered by gastric gavage, suspended in 5% arabic gum (0.2 ml/100 g body weight). Blood pressure (BP) and heart rate (HR) were measured at the tail by BP Recorder W+W. Blood pressure and heart rate were measured on the 1st and 4th day of treatment 1 hour before and 1 and 5 hours after drug administration.
*Data of LD50 from the literature. In Tables 1 and 2 are reported
the results of the study of the activity of compounds 355/1165 and
355/1166 upon the BP and HR (measured indirectly by means of a tail cuff)
of spontaneous hypertensive rats, MHS strain (4 rats each group). The
compounds were given orally, once a day for 4 consecutive days.

[3] = Acute (orientative) oral toxicity in mice; conditions: mouse, in vivo
Text: The male mice for each group were orally treated with drugs at different dose levels for the determination of orientative toxicity.

CN1CC(CCC(N)=O)C2Cc3cccc4[nH]cc(c34)CC21 (stereo not drawn) [355/1226, Trans-5(10→9)abeo-6-methyl-ergoline-8β-propionamide]
Change in blood pressure after treatment, 30' ([1]; 3 mg/kg os): -19 mmHg
Change in heart rate after treatment, 30' ([1]; 3 mg/kg os): -33 b/min
Change in blood pressure after treatment, 60' ([1]; 3 mg/kg os): -28 mmHg
Change in heart rate after treatment, 60' ([1]; 3 mg/kg os): -30 b/min
Change in blood pressure after treatment, 120' ([1]; 3 mg/kg os): -40 mmHg
Change in heart rate after treatment, 120' ([1]; 3 mg/kg os): -23 b/min
Change in blood pressure after treatment, 240' ([1]; 3 mg/kg os): -32 mmHg
Change in heart rate after treatment, 240' ([1]; 3 mg/kg os): -16 b/min
Change in blood pressure after treatment, 360' ([1]; 3 mg/kg os): -25 mmHg
Change in heart rate after treatment, 360' ([1]; 3 mg/kg os): +4 b/min
Hypotensive activity compared with 355/1165 and 355/1166 ([1]; 3 mg/kg per os): intermediate activity between compound 355/1165 and compound 355/1166
Effect on heart rate [1]: slight bradycardia and never tachicardia
Change in BP, 1st day, 1 hr after dose ([2]; 1 mg/kg os, 1st day): -32 mmHg
Change in HR, 1st day, 1 hr after dose ([2]; 1 mg/kg os, 1st day): -20 b/min
Change in BP, 1st day, 5 hrs after dose ([2]; 1 mg/kg os, 1st day): -27 mmHg
Change in HR, 1st day, 5 hrs after dose ([2]; 1 mg/kg os, 1st day): +3 b/min
Change in BP, 4th day, 1 hr after dose ([2]; 1 mg/kg os, 4th day): -21 mmHg
Change in HR, 4th day, 1 hr after dose ([2]; 1 mg/kg os, 4th day): -5 b/min
Change in BP, 4th day, 5 hrs after dose ([2]; 1 mg/kg os, 4th day): -42 mmHg
Change in HR, 4th day, 5 hrs after dose ([2]; 1 mg/kg os, 4th day): -13 b/min
Change in BP, 1st day, 1 hr after dose ([2]; 3 mg/kg os, 1st day): -47 mmHg
Change in HR, 1st day, 1 hr after dose ([2]; 3 mg/kg os, 1st day): -20 b/min
Change in BP, 1st day, 5 hrs after dose ([2]; 3 mg/kg os, 1st day): -57 mmHg
Change in HR, 1st day, 5 hrs after dose ([2]; 3 mg/kg os, 1st day): -10 b/min
Change in BP, 4th day, 1 hr after dose ([2]; 3 mg/kg os, 4th day): -40 mmHg
Change in HR, 4th day, 1 hr after dose ([2]; 3 mg/kg os, 4th day): -40 b/min
Change in BP, 4th day, 5 hrs after dose ([2]; 3 mg/kg os, 4th day): -42 mmHg
Change in HR, 4th day, 5 hrs after dose ([2]; 3 mg/kg os, 4th day): -45 b/min
Effect on BP ([2]; 1 and 3 mg/kg per os): decreases BP; especially with the higher dose, this effect is remarkable and long lasting
Antihypertensive activity compared with Hydralazine, 1st day ([2]; 1st day, 355/1165 2 mg/kg, 355/1226 3 mg/kg per os vs Hydralazine 3 mg/kg per os): more marked antihypertensive activity
Antihypertensive effect compared with Hydralazine, 4th day ([2]; 4th day, 355/1165 2 mg/kg, 355/1226 3 mg/kg per os vs Hydralazine 3 mg/kg per os): even greater effect
Tolerance after repeated administration ([2]; four days, 355/1165 2 mg/kg, 355/1226 3 mg/kg, 355/1225 and 355/1229 5 mg/kg per os): tolerance does not occur after repeated administration
Activity compared with α-methyl-DOPA ([2]; 355/1165 2 mg/kg, 355/1226 3 mg/kg per os): 50 times
LD50 at 168 h [3]: > 800 mg/kg

CCOC(=O)C(C#N)CC1CN(C)C2Cc3c[nH]c4cccc(c34)CC12 (stereo not drawn) [355/1166, 2-Cyano-3-[trans-5(10→9)abeo-6-methyl-ergoline-8β]-propionic acid ethyl ester]
Change in blood pressure after treatment, 30' ([1]; 5 mg/kg os): 0 mmHg
Change in heart rate after treatment, 30' ([1]; 5 mg/kg os): -20 b/min
Change in blood pressure after treatment, 60' ([1]; 5 mg/kg os): -3 mmHg
Change in heart rate after treatment, 60' ([1]; 5 mg/kg os): -20 b/min
Change in blood pressure after treatment, 120' ([1]; 5 mg/kg os): -15 mmHg
Change in heart rate after treatment, 120' ([1]; 5 mg/kg os): -35 b/min
Change in blood pressure after treatment, 240' ([1]; 5 mg/kg os): -18 mmHg
Change in heart rate after treatment, 240' ([1]; 5 mg/kg os): -15 b/min
Change in blood pressure after treatment, 360' ([1]; 5 mg/kg os): -10 mmHg
Change in heart rate after treatment, 360' ([1]; 5 mg/kg os): -20 b/min
Effectiveness compared with the reference compound (hydralazine) ([1]; 5 mg/kg per os): less effective than the reference compound
Effect on heart rate [1]: slight bradycardia and never tachicardia
Change in BP, 1st day, 1 hr after dose ([2]; 5 mg/kg os, 1st day): -8 mmHg
Change in HR, 1st day, 1 hr after dose ([2]; 5 mg/kg os, 1st day): -25 b/min
Change in BP, 1st day, 5 hrs after dose ([2]; 5 mg/kg os, 1st day): -20 mmHg
Change in HR, 1st day, 5 hrs after dose ([2]; 5 mg/kg os, 1st day): -25 b/min
Change in BP, 4th day, 1 hr after dose ([2]; 5 mg/kg os, 4th day): -22 mmHg
Change in HR, 4th day, 1 hr after dose ([2]; 5 mg/kg os, 4th day): -35 b/min
Change in BP, 4th day, 5 hrs after dose ([2]; 5 mg/kg os, 4th day): -26 mmHg
Change in HR, 4th day, 5 hrs after dose ([2]; 5 mg/kg os, 4th day): -20 b/min
Effect on BP ([2]; 5 mg/kg per os): lowers BP at each recording session, but its effect is more pronounced after the 4th dose
Effectiveness compared with α-methyl-DOPA ([2]; 5 mg/kg per os): 20 times
Hypotensive effect compared with Hydralazine, after 4th administration ([2]; 1st and 5th hours after 4th administration, 5 mg/kg per os vs Hydralazine 3 mg/kg per os): greater hypotensive effect
Activity compared with Hydralazine, 1st day ([2]; 1st day, 5 mg/kg per os vs Hydralazine 3 mg/kg per os): less pronounced activity than Hydralazine
LD50 at 168 h [3]: > 800 mg/kg
